Results on 16 molecules are retold here after US4624954A, “6,7,8,9-tetrahydro-10-methylpyrido[1,2-a]indol-9-amines and derivatives thereof, useful for the treatment of cognitive impairments” (American Home Products Corporation, priority 1985, dated 1986).

Counter-ions that a name gives are not always drawn.

Assay in one assay: not given
The note with it: scopolamine alone; passive avoidance; cited from earlier work.
For `CN1[C@@H]2C[C@@H](OC(=O)[C@H](CO)c3ccccc3)C[C@H]1[C@@H]1O[C@@H]12` [scopolamine], the “memory effect of scopolamine (in words)” value is listed as “impairs the rat's ability to remember to avoid the darkened enclosure”.

A further assay is described as follows: Anoxia-induced lethality test in mice (survival in 100% nitrogen). In kind it is in vivo, Male, CD-1 mice. The note with it: Mus musculus, ip, 30 minutes prior to testing; 100% nitrogen for 80 seconds; read-out: ED50, protected from anoxia-induced lethality in mice. An excerpt:
To test the protective ability of the compounds of formula I against the physical consequences of anoxia, mice were exposed to an atmosphere of pure nitrogen which killed all of the animals. Intraperitoneal pretreatment of mice with the compounds of formula I protected them against this lethal effect.
ANOXIA-INDUCED LETHALITY TEST IN MICE
The anoxia-induced lethality test in mice evaluates the activity of drugs which protect the animal from deleterious effects of oxygen-lack, such as occurs in conditions of cerebral ischemia. Activity is measured as the survival rate in mice exposed to 100% nitrogen for 80 seconds, a procedure which is lethal to […] of untreated animals.
Test compounds are dissolved in water, or suspended in 0.2% aqueous Tween 80 and are administered i.p., 30 minutes prior to testing. Several doses and a vehicle control are tested, with 8 mice receiving each dose.
Male, CD-1 mice weighing 18-20 g are used. Mice are held separately within a cage in a modified plastic, air-tight desiccator which is connected to a tank of compressed 100% nitrogen gas.
Delivery of the anoxic gas is controlled by means of a toggle valve, and exposure is terminated by rapidly removing the mice from the desiccator. All operations are timed with a stopwatch. An ED50 value is determined from the percentage of mice which survive in each group. Drugs which reduce the anoxia-induced lethality solely by lowering body temperature are excluded.
As to `Cc1c2n(c3ccccc13)CCCC2N(C)C.Cl` (stereo not drawn) [Example 3, 6,7,8,9-Tetrahydro-N,N,10-trimethylpyrido[1,2-a]indole-9-amine Hydrochloride], the ED50 (usually the midpoint of the dose-response relation) was 13.5 mg/kg.

The same assay, now with this note: Mus musculus, ip, read-out: ED50, protected from anoxia-induced lethality in mice.
In the case of `Cc1c2n(c3ccc(Br)cc13)CCC(C)(C)C2N1CCCC1.Cl` (stereo not drawn) [Example 17, 2-Bromo-6,7,8,9-tetrahydro-8,8,10-trimethyl-9-(1-pyrrolidinyl)pyrido[1,2-a]indole Hydrochloride], the ED50 was determined as 50 mg/kg.

Take `Cc1c2n(c3ccccc13)CCC(C)(C)C2N1CCCC1` (stereo not drawn) [Example 1, 6,7,8,9-Tetrahydro-8,8,10-trimethyl-9-(1-pyrrolidinyl)-pyrido[1,2,a]indole Hydrochloride]: the ED50 was 11.2 mg/kg.

With `Br.Cc1c2n(c3ccc(O)cc13)CCC(C)(C)C2N1CCCC1` (stereo not drawn) [Example 33, 6,7,8,9-Tetrahydro-2-hydroxy-8,8,10-trimethyl-9-(1-pyrrolidinyl)-pyrido[1,2-a]indole Hydrobromide], the median effective dose (ED50) worked out at 20 mg/kg.

Take `C#CCNC1CCCn2c1c(C)c1ccccc12.Cl` (stereo not drawn) [Example 7, 6,7,8,9-Tetrahydro-10-methyl-N-(2-propynyl)pyrido[1,2-a]indol-9-amine Hydrochloride]: the ED50 is 22 mg/kg.

Take `COc1ccc2c(C)c3n(c2c1)CCCC3N(C)C.Cl` (stereo not drawn) [Example 28, 6,7,8,9-Tetrahydro-3-methoxy-N,N,10-trimethylpyrido[1,2-a]indol-9-amine Hydrochloride]: the ED50 was 20 mg/kg.

In the case of `Cc1c2n(c3ccccc13)CCC(C)(C)C2N(C)C1CCCCC1` (stereo not drawn) [Example 32, N-Cyclohexyl-6,7,8,9-tetrahydro-N,8,8,10-tetramethylpyrido[1,2-a]indol-9-amine], the ED50 is 8.8 mg/kg.

As to `CNC1CCCn2c1c(C)c1ccc(OC)cc12.Cl` (stereo not drawn) [Example 27, 6,7,8,9-Tetrahydro-3-methoxy-N,10-dimethylpyrido[1,2-a]indol-9-amine Hydrochloride], the median effective dose (ED50) turned out to be 15.1 mg/kg.

In the case of `Cc1c2n(c3ccccc13)CCC(C)(C)C2N.Cl` (stereo not drawn) [Example 29, 6,7,8,9-Tetrahydro-8,8,10-trimethylpyrido[1,2-a]indol-9-amine Hydrochloride], the ED50 is 17.2 mg/kg.

In the case of `Cc1c2n(c3ccc(Br)cc13)CCCC2N1CCCCC1.Cl` (stereo not drawn) [Example 19, 2-Bromo-6,7,8,9-tetrahydro-10-methyl-9-(1-piperidinyl)-pyrido[1,2-a]indole Hydrochloride], the ED50 came to 110 mg/kg.

As to `Br.Cc1c2n(c3ccccc13)CCC(C)(C)C2N(C)C` (stereo not drawn) [Example 4, 6,7,8,9-Tetrahydro-N,N,8,8,10-pentamethylpyrido[1,2-a]indol-9-amine Hydrobromide], the ED50 is 5 mg/kg.

Consider `CCC1(CC)CCn2c(c(C)c3ccccc32)C1N1CCCC1` (stereo not drawn) [Example 6, 8,8-diethyl-6,7,8,9-tetrahydro-10-methyl-9-(1-pyrolidinyl)pyrido[1,2-a]indole Hydrochloride], for which the ED50 came out at 20 mg/kg.

For the molecule `Cc1c2n(c3ccccc13)CCCC2N1CCCC1.Cl` (stereo not drawn) [Example 2, 6,7,8,9-Tetrahydro-10-methyl-9-(1-pyrrolidinyl)pyrido[1,2-a]indole Hydrochloride], the ED50 was found to be 83.3 mg/kg.

Consider `Cc1c2n(c3ccccc13)CCCC2N1CCCCC1.Cl` (stereo not drawn) [Example 8, 6,7,8,9-Tetrahydro-10-methyl-9-(1-piperidinyl)-pyrido[1,2-a]indole Hydrochloride], for which the ED50 came out at 55.7 mg/kg.

Regarding `Cc1c2n(c3ccccc13)CCCC2N1CCOCC1.Cl` (stereo not drawn) [Example 9, 6,7,8,9-Tetrahydro-10-methyl-9-(4-morpholinyl)-pyrido[1,2-a]indole Hydrochloride], the ED50 was 32.4 mg/kg.

Another assay is described as follows: Passive avoidance test: prevention of scopolamine-induced memory impairment in rats. In kind it is in vivo, male Sprague-Dawley rats. The note with it: 30 mg/kg test compound, oral, 75 or 90 min before training; scopolamine 2 mg/kg s.c.; retention test 24 h later, 180 seconds access.
Experimental: In the test, a rat must remember to avoid a darkened enclosure where it had been shocked the previous day.
This passive avoidance procedure uses a test chamber divided into two compartments: a lighted compartment and a dark compartment.
The two compartments are separated by a solenoid-operated slide door. An inescapable foot shock (750 μA for two seconds) can be presented to the grid floor of the dark compartment.
On the training day, male Sprague-Dawley rats (eight animals are tested per group) are placed in the lighted compartment and given access to the adjacent dark compartment. Upon entering the dark compartment, the rat is given an inescapable foot shock. Twenty-four hours later retention (memory) is tested: the rat is placed in the lighted compartment and allowed access to the dark compartment for 180 seconds.
Compounds to be tested are dissolved in 0.9% saline or suspended in Tween 80 (0.2% v/v in saline) or methyl cellulose (0.5% w/v in distilled water). […] Appropriate vehicle and control groups are included with each experiment. Each animal is given a single training trial.
Take `Cc1c2n(c3ccccc13)CCC(C)(C)C2N1CCCC1` (stereo not drawn) [Example 1, 6,7,8,9-Tetrahydro-8,8,10-trimethyl-9-(1-pyrrolidinyl)-pyrido[1,2,a]indole Hydrochloride]: the “mean entry latency on retention day” value worked out at 152 s.

For `Cc1c2n(c3ccccc13)CCCC2N1CCCC1.Cl` (stereo not drawn) [Example 2, 6,7,8,9-Tetrahydro-10-methyl-9-(1-pyrrolidinyl)pyrido[1,2-a]indole Hydrochloride], the “mean entry latency on retention day” value was 135 s.
